In patent US20080051420A1, “New Compounds 317” (AstraZeneca AB, priority 2006, published 2008) one finds IC50 data, which are given here for six molecules.

Molecules are shown by their SMILES. pIC50: −log10 of the molar value.

T1 sequence (P56817 22-460): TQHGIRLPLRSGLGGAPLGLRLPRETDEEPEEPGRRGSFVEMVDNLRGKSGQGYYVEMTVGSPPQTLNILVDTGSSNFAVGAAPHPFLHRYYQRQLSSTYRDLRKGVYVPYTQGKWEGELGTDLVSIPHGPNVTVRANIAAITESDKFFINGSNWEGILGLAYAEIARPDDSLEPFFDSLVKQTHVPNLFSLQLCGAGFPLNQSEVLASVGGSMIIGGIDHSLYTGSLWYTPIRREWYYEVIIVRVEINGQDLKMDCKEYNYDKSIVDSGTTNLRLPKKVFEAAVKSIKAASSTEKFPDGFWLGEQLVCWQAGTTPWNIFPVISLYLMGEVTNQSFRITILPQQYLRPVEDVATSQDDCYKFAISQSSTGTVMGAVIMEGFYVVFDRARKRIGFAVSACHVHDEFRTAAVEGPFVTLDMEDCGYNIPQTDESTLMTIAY

The experiment addresses T1, human β-secretase (Homo sapiens, UniProt P56817).
T1 construct: The soluble part of the human β-secretase (AA 1-AA 460) was cloned; made in house
Kind of experiment: TR-FRET assay (β-secretase enzyme, sBACE-Fc). It counts as biochemical. Conditions: read-out: IC50 in TR-FRET assay. The procedure: The enzyme used in the IGEN Cleavage-, Fluorescent-, TR-FRET- and BiaCore assays is described as follows:
The soluble part of the human β-secretase (AA 1-AA 460) was cloned into the ASP2-F10-1-IRES-GFP-neoK mammalian expression vector. The gene was fused to the Fc domain of IgG1 (affinity tag) and stably cloned into HEK 293 cells. Purified sBACE-Fc is stored in Tris buffer, pH 9.2 and has a purity of 95%.
Enzyme was diluted to 6 μg/mL and the substrate (Europium)[…](Qsy7) to 200 nM in reaction buffer (NaAcetate, chaps, triton x-100, EDTA pH 4.5). Compounds were diluted to the desired concentration in dimethyl sulfoxide (final dimethyl sulfoxide concentration in assay is 5%). […] Enzyme (9 μL) and 1 μL of compound in dimethyl sulfoxide was added to the plate, mixed and pre-incubated for 10 min. Substrate (10 μL) was added and the reaction proceeded in the dark for 15 min at RT. The reaction was stopped with the addition of 7 μL NaAcetate, pH 9. […] The dimethyl sulfoxide control defined the 100% activity level and 0% activity was defined by exclusion of the enzyme (using reaction buffer instead).
Background: In TR-FRET formats the signal depends on donor and acceptor labels being close together.
Usually pIC50 stands for −log10 of the IC50, conventionally taken in molar units. `NC1=NC(c2cccc(OS(=O)(=O)C(F)(F)F)c2)(c2cccc(-c3cccnc3)c2)C2=NCCCN12` (stereo not drawn) [Example 130, 3-[6-Amino-8-(3-pyridin-3-ylphenyl)-2,3,4,8-tetrahydroimidazo[1,5-a]pyrimidin-8-yl]phenyl trifluoromethanesulfonate]: the pIC50 was 6.86.
For `NC1=NC(c2cccc(OS(=O)(=O)C(F)(F)F)c2)(c2cccc(-c3cc(Cl)cnc3F)c2)C2=NCCCN12` (stereo not drawn) [Example 131, 3-{6-Amino-8-[3-(5-chloro-2-fluoropyridin-3-yl)phenyl]-2,3,4,8-tetrahydroimidazo[1,5-a]pyrimidin-8-yl}phenyl trifluoromethanesulfonate], the pIC50 was 6.27.
Consider `NC1=NC(c2cccc(OS(=O)(=O)C(F)(F)F)c2)(c2cccc(-c3cncnc3)c2)C2=NCCCN12` (stereo not drawn) [Example 132, 3-[6-Amino-8-(3-pyrimidin-5-ylphenyl)-2,3,4,8-tetrahydroimidazo[1,5-a]pyrimidin-8-yl]phenyl trifluoromethanesulfonate], for which the pIC50 is 6.43.
Regarding `COc1cc(OS(C)(=O)=O)cc(-c2cccc(C3(c4cccc(OC)c4)N=C(N)N4CCCN=C43)c2)c1` (stereo not drawn) [Example 133, 3′-[6-Amino-8-(3-methoxyphenyl)-2,3,4,8-tetrahydroimidazo[1,5-a]pyrimidin-8-yl]-5-methoxybiphenyl-3-yl methanesulfonate], the pIC50 is 6.43.
On to `CN(C)C(=O)c1cccc(C2(c3cccc(-c4cccnc4F)c3)N=C(N)N3CC(F)(F)CN=C32)c1` (stereo not drawn) [Example 145, 3-{6-Amino-3,3-difluoro-8-[3-(2-fluoropyridin-3-yl)phenyl]-2,3,4,8-tetrahydroimidazo[1,5-a]pyrimidin-8-yl}-N,N-dimethylbenzamide], for which the pIC50 is 6.65.
Consider `CN(C)C(=O)c1ccc(C2(c3cccc(-c4cccnc4F)c3)N=C(N)N3CC(F)(F)CN=C32)cc1` (stereo not drawn) [Example 146, 4-{6-Amino-3,3-difluoro-8-[3-(2-fluoropyridin-3-yl)phenyl]-2,3,4,8-tetrahydroimidazo[1,5-a]pyrimidin-8-yl}-N,N-dimethylbenzamide], for which the pIC50 is 6.67.
